# Test results from ChEMBL document CHEMBL1128060, “Deoxypseudophrynaminol: a novel antibacterial alkaloid” (1995).
# Calls of active or inactive are those of the source. The rule behind the calls is not given here.
# Assays:
# Enterococcus faecalis [1] = assay: Minimum inhibitory concentration against growth of patient isolated vancomycin-resistant Enterococcus faecalis ATCC 51299 (VRE2); no inhibition; format: functional, organism-based
# Staphylococcus aureus [2] = assay: Minimum inhibitory concentration against growth of patient isolated methicillin-resistant Staphylococcus aureus (MRSA2); no inhibition; format: functional, organism-based
# Staphylococcus aureus [3] = assay: Minimum inhibitory concentration against growth of patient isolated methicillin-resistant Staphylococcus aureus (MRSA2); format: functional
# Staphylococcus aureus [4] = assay: Minimum inhibitory concentration against growth of patient isolated methicillin-resistant Staphylococcus aureus (MRSA1); format: functional
# Enterococcus faecium = assay: Minimum inhibitory concentration against growth of patient isolated vancomycin-resistant Enterococcus faecium (VRE1); format: functional
# Escherichia coli = assay: Minimum inhibitory concentration against growth of […] Escherichia coli […]; format: functional
# Enterococcus faecalis [5] = assay: Minimum inhibitory concentration against growth of patient isolated vancomycin-resistant Enterococcus faecalis ATCC 51299 (VRE2); format: functional
SMILES,MIC (Enterococcus faecalis [1]),MIC (Staphylococcus aureus [2]),MIC (Staphylococcus aureus [3]) [µg/mL],MIC (Staphylococcus aureus [4]) [µg/mL],MIC (Enterococcus faecium) [µg/mL],MIC (Escherichia coli) [µg/mL],MIC (Enterococcus faecalis [5]) [µg/mL]
CC(C)=CCN1c2ccccc2C2(CC=C(C)C)CCN(C=O)C12 (configuration not stated),inactive,inactive,,,,,
CC(C)=CCC12CCN(C)C1Nc1ccccc12 (configuration not stated),,,40,40,20,160,40
